Test [1] concerns the target T1, BTK (Homo sapiens, UniProt Q06187).
T1 construct: endogenous in cells; host or cells: Ramos cells
In words: Btk target site occupancy, covalent probe ELISA in Ramos cells. It is filed as cell-based. The note with it: 1 hour at 37° C., 0.09-200 nM, read-out: Ramos cell EC50 (nM), BTK occupancy. The procedure:
A covalent probe shown below was used in an ELISA assay to determine occupancy of the target BTK by certain compounds according to the invention.
Ramos cells were incubated in serum-free RPMI medium for 1 hour (˜2×10^6 cells/mL in 2 mL). Test compounds were diluted from a 10 mM DMSO stock solution, to achieve a final concentration of 0.09, 0.27, 0.82, 2.47, 7.42, 22.2, 66, and 200 nM. Cells were then incubated for 1 hour at 37° C. Following incubation, cells were spun at 1100 RPM for 5 minutes then washed in 200 μL of chilled PBS. Following the wash, cells were spun at 1100 RPM for 5 minutes. The supernatant was aspirated and then cells were resuspended in lysis buffer containing protease and phosphatase inhibitors. This was followed by centrifugation for 15 minutes at 14000 RPM at 4° C. Supernatant was transferred to a fresh tube. Lysates were stored at −80° C. until assayed.
Samples were thawed and mixed well by vortexing for 5 seconds. 60 μL of each sample was added into the 96-well mixing plate followed by addition of 60 μL of covalent probe solution (2 μM probe in PBS+0.05% Tween-20+1% BSA; 1:2 sample dilution) to each well containing sample. An adhesive cover was then placed on the plate followed by mixing of the plate on a shaker for 1 hour at room temperature. The streptavidin plate was pre-washed 3 times with PBS+0.05% Tween-20. 50 μL of the standards, QCs, and samples were then transferred from the mixing plate to the streptavidin plate. The plate was covered with an adhesive cover and mixed while shaking for 1 hour at room temperature. A 1:1000 dilution of the primary anti-Btk antibody (catalog #611116, Becton Dickinson; Franklin Lakes, N.J.) in PBS+0.05% Tween-20+0.5% BSA was prepared. The streptavidin plate was washed 3 times with PBS+0.05% Tween-20 and 50 μL/well of diluted anti-Btk antibody was then pipetted into the streptavidin plate. The plate was covered and incubated for 1 hour at room temperature. A 1:5000 dilution of secondary antibody (goat anti-mouse-HRP, catalog #62-6520, Zymed-Invitrogen; Carlsbad, Calif.) in PBS+0.05% Tween-20+0.5% BSA was prepared. The streptavidin plate was again washed 3 times with PBS+0.05% Tween-20 and 50 μL/well of diluted secondary antibody was pipetted into the streptavidin plate. The plate was covered and incubated for 1 hour at room temperature. The streptavidin plate was again washed 3 times with PBS+0.05% Tween-20 followed by the addition of 100 μL of TMB solution to each well. The plate was then read on a Synergy^2 plate reader at OD 650 nm until the OD maximum reached 1.0. This was followed by the addition of 100 μL of the Stop Solution. The plate was then read at OD 450 nm. A human recombinant Btk protein standard curve (11.7-3000 pg/μL) was plotted using a 4 parameter curve fit in GenS software (Version 1.05.11; Biotek; Winooski, Vt.;). The sample ODs were read against the standard curve to calculate free protein amounts.
Data were generated as ODs on an ELISA plate reader (Synergy^2, BioTek; Winooski, Vt.). Uninhibited Btk captured by the biotinylated covalent probe was quantitated and normalized to untreated control samples. Results were expressed as % Btk occupancy. EC50 values were generated using a 4 parameter curve fit analysis in GraphPad Prism version 5.0.

Test [2] concerns the target T2, human recombinant full-length Btk enzyme (Homo sapiens, UniProt Q06187). Briefly: Omnia Continuous Read Kinase Assay, Btk inhibition. Type of test: biochemical. The arrangement: human recombinant full-length Btk enzyme. Particulars: 30 minutes pre-incubation at 27° C.; 0.5 nM to 10 μM. The source says:
The following Example describes testing certain compounds according to the invention for inhibition of BTK activity. The Omnia® Continuous Read Kinase Assay uses an unnatural amino acid chelation enhanced fluorophore (Sox; 8-hydroxy-5-(N,N-dimethylsulfonamido)-2 methylquinoline) incorporated into a kinase-specific peptide substrate to characterize Btk enzyme kinetics and inhibition. Following Btk-mediated phosphorylation, a sensitive, highly quantifiable increase in real-time fluorescence is noted based upon the ability of chelated Mg2+ to form a bridge between Sox and the phosphate group on a tyrosine residue of the peptide substrate. The Omnia® continuous read assay was performed essentially as described by the vendor (Invitrogen; Carlsbad, Calif.). First, a 10× stock of human recombinant full-length Btk enzyme was prepared in Kinase Reaction Buffer. 5 μL of the 10× enzyme was pre-incubated with 0.5 μL of serially diluted compound prepared in 50% DMSO, in a 384-well microtiter plate for 30 minutes at 27° C. 1.13×ATP and the Tyr5-Sox conjugated peptide substrate were prepared in 1× Kinase Reaction Buffer. Kinase reactions were initiated by the addition of 45 μL of the 1.13×ATP-Sox peptide substrate master mix and monitored every 30 to 90 seconds for 60 minutes at λex360/λem485 in a Synergy plate reader. The IC50 values for each compound assayed were determined from test concentrations of 0.5 nM to 10 μM in half-log intervals performed in duplicate.
At the conclusion of each assay, progress curves from each well were examined for linear reaction kinetics and fit statistics (R2, 95% confidence interval, absolute sum of squares) using GraphPad software (GraphPad Prism version 5.01; San Diego, Calif.). Initial velocity (0 minutes to ˜30+ minutes) from each reaction was determined from the slope of a plot of relative fluorescence units versus time (minutes). Using control normalized % inhibition data, plots were constructed against inhibitor concentration to estimate IC50 from log [inhibitor] versus response using a variable slope model in GraphPad. The compound numbers correspond to the compound numbers in Table 1.

The target in test [3] is T2, human recombinant full-length Btk enzyme. In words: Covalent bonding assay, intact protein MALDI mass spectrometry. Type of test: binding. More on the design: The full-length recombinant human Btk protein; purchased Invitrogen Lot #619547Q (catalogue number not given). The note with it: percentage of total protein covalently modified after one hour incubation, 10-fold excess of compound, room temperature. The method, then: The following example describes testing certain compounds to determine whether they covalently bind to BTK. The full-length recombinant human Btk protein (Lot #619547Q; 0.35 mg/mL) was obtained from Invitrogen (Carlsbad, Calif.). Btk protein was diluted 2:3 in phosphate-buffered saline and stock concentration (10 mM) of compound was diluted 1:115 in 50% DMSO.
For all compounds, 1 μL of diluted compound was added to 5 μL of diluted protein. These mixtures were then incubated for 60 minutes at a 10-fold excess of compound to protein under room temperature (˜24° C.) conditions.
At the end of the incubation, 5 μL aliquots of the samples were diluted with 15 μL of 0.2% TFA prior to micro C4 ZipTipping® directly onto the MALDI target plate using sinapinic acid as the desorption matrix (10 mg/mL in 0.2% TFA:Acetonitrile 50:50). Samples were immediately analyzed on an ABSciex 4800 MALDI TOF-TOF mass spectrometer.
For intact protein mass measurement, the mass spectrometer was set in linear mode using a pulsed extraction setting of 81,500. Bovine serum albumin (BSA; Sigma, St Louis, Mo.) was used as the standard to calibrate the instrument. These values correspond to the percentage of total protein covalently modified by the tested compound after one hour incubation.

For test [4], the system named is TNF-α, IL-1β, and other inflammatory cytokines. Particulars: LPS-stimulated hPBMC and human whole blood; cited from earlier work.

The source of these data is patent US9415049B2, “Heteroaryl compounds and uses thereof” (Celgene Avilomics Research, Inc., priority 2013, dated 2016).

SMILES strings stand for the structures.

T2 sequence (Q06187 whole entry): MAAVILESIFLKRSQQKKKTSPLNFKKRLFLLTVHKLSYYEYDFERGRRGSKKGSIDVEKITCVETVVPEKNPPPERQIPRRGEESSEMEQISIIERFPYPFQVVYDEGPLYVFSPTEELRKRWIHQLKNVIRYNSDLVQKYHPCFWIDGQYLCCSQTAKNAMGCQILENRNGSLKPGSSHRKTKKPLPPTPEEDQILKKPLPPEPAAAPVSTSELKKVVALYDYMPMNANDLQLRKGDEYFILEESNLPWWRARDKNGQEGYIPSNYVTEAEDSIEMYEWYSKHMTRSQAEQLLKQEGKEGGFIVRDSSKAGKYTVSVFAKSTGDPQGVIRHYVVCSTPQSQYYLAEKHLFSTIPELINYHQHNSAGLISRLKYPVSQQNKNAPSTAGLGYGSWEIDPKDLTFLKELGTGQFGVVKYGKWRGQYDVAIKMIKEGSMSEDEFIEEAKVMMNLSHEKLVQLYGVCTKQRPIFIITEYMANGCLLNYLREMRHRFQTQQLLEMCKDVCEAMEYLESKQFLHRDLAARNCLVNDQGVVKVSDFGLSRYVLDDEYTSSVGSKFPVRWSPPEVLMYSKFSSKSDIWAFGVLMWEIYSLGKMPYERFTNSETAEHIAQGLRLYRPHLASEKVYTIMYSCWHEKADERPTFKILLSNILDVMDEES
T1 sequence (Q06187 whole entry): as above

In the case of `C=CC(=O)N(C)c1cccc(Nc2nc(Nc3ccc(OCCO)cc3)ncc2F)c1` [Compound I-23, N-(3-((5-fluoro-2-((4-(2-hydroxyethoxy)phenyl)amino)pyrimidin-4-yl)amino)phenyl)-N-methylacrylamide], the EC50 – broadly, the concentration that produces a half-maximal response – in test [1] is under 100 nM. The IC50 – broadly, the midpoint of a concentration-inhibition curve – in test [2] is at most 10 nM.

Take `C=CC(=O)Nc1cccc(Nc2nc(Nc3ccc(OCCOC)c(O)c3)ncc2F)c1` [Compound I-13, N-(3-((5-fluoro-2-((3-hydroxy-4-(2-methoxyethoxy)phenyl)amino)pyrimidin-4-yl)amino)phenyl)acrylamide]: the EC50 in test [1] is under 50 nM. Further, in test [2], the IC50 was at most 10 nM.

On to `O=C(Nc1cccc(Nc2nc(Nc3ccc(O)cc3)ncc2F)c1)C(O)CO` (stereo not shown) [Compound I-6, N-(3-((5-fluoro-2-((4-hydroxyphenyl)amino)pyrimidin-4-yl)amino)phenyl)-2,3-dihydroxypropanamide], for which the MS % modification result in test [3] is “C (<30% modification)”. Also, the 50% inhibitory concentration (IC50) in test [2] lay in the range of 101 to 500 nM.

As to `O=C(Nc1cccc(Nc2nc(Nc3ccc(OCCO)cc3)ncc2F)c1)C1CO1` (stereo not shown) [Compound I-22, N-(3-((5-fluoro-2-((4-(2-hydroxyethoxy)phenyl)amino)pyrimidin-4-yl)amino)phenyl)oxirane-2-carboxamide], in test [1], the EC50 is under 50 nM. The IC50 in test [2] was at most 10 nM.

With `C=CC(=O)Nc1cccc(N(C)c2nc(Nc3ccc(OCCO)cc3)ncc2F)c1` [Compound I-24], in test [1], the EC50 is under 10 nM. The IC50 in test [2] was at most 10 nM.

As to `COCCOc1ccc(Nc2ncc(F)c(Nc3cccc(NC(=O)C4CO4)c3)n2)cc1` (stereo not shown) [Compound I-19, N-(3-((5-fluoro-2-((4-(2-methoxyethoxy)phenyl)amino)pyrimidin-4-yl)amino)phenyl)oxirane-2-carboxamide], the MS % modification result in test [3] was “A (>70% modification)”. The EC50 in test [1] was under 10 nM. Moreover, in test [2], the IC50 was at most 10 nM.

`C=CC(=O)Nc1cccc(Nc2nc(Nc3ccc(OCCOC)cc3)ncc2F)c1O` [Compound I-18, N-(3-((5-fluoro-2-((4-(2-methoxyethoxy)phenyl)amino)pyrimidin-4-yl)amino)-2-hydroxyphenyl)acrylamide]: the EC50 in test [1] was under 50 nM. Moreover, in test [2], the half-inhibitory concentration (IC50) was at most 10 nM.

On to `COCCOc1ccc(Nc2ncc(F)c(Nc3cccc(NC(=O)C(O)CO)c3)n2)cc1` (stereo not shown) [Compound I-4, N-(3-((5-fluoro-2-((4-(2-methoxyethoxy)phenyl)amino)pyrimidin-4-yl)amino)phenyl)-2,3-dihydroxypropanamide], for which the MS % modification result in test [3] is “C (<30% modification)”. Further, the IC50 in test [2] lay in the range of 101 to 500 nM.

In the case of `Cc1nc2cccc(N)c2c(=O)n1C1CCC(=O)NC1=O` (stereo not shown) [compound of formula D, 3-(5-amino-2-methyl-4-oxo-4H-quinazolin-3-yl)-piperidine-2,6-dione], the “inhibition of TNF-α, IL-1β, and other inflammatory cytokines” value in test [4] is “markedly inhibits”.

`O=C(Nc1cccc(Nc2nc(Nc3ccc(OCCO)cc3)ncc2F)c1)C(O)CO` (stereo not shown) [Compound I-5, N-(3-((5-fluoro-2-((4-(2-hydroxyethoxy)phenyl)amino)pyrimidin-4-yl)amino)phenyl)-2,3-dihydroxypropanamide]: the MS % modification entry in test [3] was “C (<30% modification)”. Further, in test [2], the half-maximal inhibitory concentration (IC50) was 101 to 500 nM.

`C=CC(=O)Nc1cccc(Nc2nc(Nc3ccc(OCC(=O)O)cc3)ncc2F)c1` [Compound I-2, 2-(4-((4-((3-acrylamidophenyl)amino)-5-fluoropyrimidin-2-yl)amino)phenoxy)acetic acid]: the EC50 in test [1] was over 200 nM. For the same molecule, in test [2], the IC50 was at most 10 nM.
